The nature of data set [1]: Spectroscopic (UV/Vis) determination of the concentration of xanthophylls in LUVs. Format: physicochemical. The procedure: The concentrations of xanthophylls were measured using a 2 mm optical path quartz cell in an Agilent Cary 60 UV-Vis spectrophotometer. To measure the concentration of xanthophylls in LUVs, a 10 μL aliquot is mixed with 300 μL of DMF. Standards and samples were measured at least 3 times and the data were averaged.

The target in data set [2] is T1, mBCO2 (Mus musculus, UniProt Q99NF1).
T1 construct: expressed in transfected cells; host or cells: HEK293F (Human 293F FreeStyle) cells
T1 sequence (Q99NF1 1-532): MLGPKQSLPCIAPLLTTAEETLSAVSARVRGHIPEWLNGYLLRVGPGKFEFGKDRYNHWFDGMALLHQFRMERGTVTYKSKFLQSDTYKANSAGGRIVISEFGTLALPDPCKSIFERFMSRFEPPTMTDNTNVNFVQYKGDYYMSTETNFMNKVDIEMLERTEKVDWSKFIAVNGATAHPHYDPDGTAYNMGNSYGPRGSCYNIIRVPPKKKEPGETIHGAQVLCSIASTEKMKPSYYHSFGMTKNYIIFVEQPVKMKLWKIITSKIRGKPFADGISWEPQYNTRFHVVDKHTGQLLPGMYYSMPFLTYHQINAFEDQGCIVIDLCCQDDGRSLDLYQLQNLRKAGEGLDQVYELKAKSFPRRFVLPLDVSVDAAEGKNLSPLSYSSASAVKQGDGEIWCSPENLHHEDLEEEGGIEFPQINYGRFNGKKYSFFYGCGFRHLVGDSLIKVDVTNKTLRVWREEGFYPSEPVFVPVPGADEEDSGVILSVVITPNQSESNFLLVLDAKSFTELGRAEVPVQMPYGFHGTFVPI
In words: Immunocolocalization of mBCO2 in COS7 cells by confocal microscopy. As to conditions: for percent of colocalization of mBCO2 with nuclear marker: 5 h, lutein 0.15 μM, violaxanthin 0.6 μM, compared with zeaxanthin 0.45 μM. The format is cell-based. The method, then: BCO2-overexpressing COS7 cells (1×10^6 cells/mL) seeded on poly L-lysine coated 18 mm coverslips were analyzed by immunofluorescence microscopy to determine the localization of BCO2 protein in different subcellular organelles as described previously. Briefly, COS7 cells were transfected with 20 μg of BCO2-Lumio V5 tag plasmid using Fugene® 6 transfection reagent (1:6 DNA: Fugene 6 ratio). After 43 h, BCO2-transfected cells were treated with substrate-encapsulated LUVs for 5 h. Fixed cells were immunostained with V5 monoclonal and polyclonal antibodies alone and together with primary antibodies specific for different subcellular organelles (ER (PDIA3), Golgi (MAN2A1), mitochondria (COX IV and HSP60), and peroxisomes (PMP70)), followed by Alexa fluorophore-conjugated secondary antibodies (Invitrogen). Cell nuclei were stained with DAPI (1 μg/μL solution; Sigma). Slides were then visualized with a Zeiss LSM 700 confocal microscope using a 40× oil immersion lens/1.4-NA and Zeiss ZEN software. Pearson's correlation coefficient values were determined for analysis of the co-localization of BCO2 protein and different organelles and represented as mean±standard deviation. For nuclear co-localization of BCO2 protein, the Pearson's correlation coefficient of BCO2 with DAPI-stained nuclei was measured using the results from three independent experiments: single labeling of BCO2 “alone”, double labeling of BCO2 with mitochondrial markers COX IV and HSP60. Results shown were typical of a minimum of three independent experiments with 5-10 fields of view containing on average 1-10 cells/field of view.
Next, BCO2 localization by immunofluorescence microscopy was examined using mBCO2 transfected COST cells with various organellar markers (for mitochondria, peroxisomes, endoplasmic reticulum (ER), and Golgi). It was confirmed that V5 tag antibodies recognize specifically mBCO2-V5 protein in transfected HEK293F cells (FIG. 12A-12F). For nuclear labeling, DAPI nuclear stain was used. […]

For data set [3], the target named is T1, mBCO2. Kind of data set: Acyl-RAC assay of mBCO2 palmitoylation in HEK293F cells. The format is cell-based. As to conditions: for mBCO2 palmitoylation (protein band in HAM-treated sample): HEK293F cells, 5 h. The procedure: previously published protocol. Briefly, a typical transfection experiment used 3×10^7 cells in 28 mL of FreeStyle medium mixed with 2 mL of OptiMem-I reduced serum medium containing 40 μL 293fectin transfection reagent (Invitrogen) and 20 μg of each expression plasmid under study. Cells were grown with shaking at 125 rpm on an orbital shaker platform in a 37° C. incubator with a humidified atmosphere of 8% CO2 for 48 h total. In total, 200 μl of vesicles with xanthophylls were added, incubating for 5 hr under standard growth conditions.
For cell lysis and the Acyl-RAC assay, the same protocol as previously described in detail, with slight modifications, was used. BCO2-overexpressing HEK293F cells were washed with 1X-PBS and resuspended in lysis buffer (50 mM HEPES (pH 7.4) containing 150 mM NaCl, 5 mM EDTA, 1% glycerol, and 1× complete protease inhibitor cocktail (Roche Diagnostics)). Resuspended cells were lysed using N2 cavitation followed by centrifugation at 900×g for 10 min at 4° C. to remove the cell debris and nuclei. The clarified supernatant was then subjected to centrifugation at 20,000×g for 30 min at 4° C. to obtain heavy membrane (mitochondrial) pellet and post-mitochondrial supernatant (light membrane and cytosol) fractions. Typically, a 1000 μg amount of resuspended heavy membrane pellet protein (resuspended in lysis buffer containing 0.1% Triton X-100) was used for palmitoylation detection assay. Briefly, free cysteine sulfhydryl (—SH) groups were blocked with 0.5% (v/v) S-methyl methanethiosulfonate (MMTS) containing blocking buffer for 15 min at 40 ° C. The blocked protein samples were then subjected to acetone protein precipitation. The protein pellet was then resuspended in 550 μl 100 mM HEPES containing 5 mM EDTA and 1% SDS (v/v). The samples were then divided into two 250 μl aliquots (containing 400 μg protein amount) and the remaining 50 μl was used as an input. The samples were treated with 250 mM hydroxylamine (NH2OH, HAM) or control (250 mM NaCl). To capture proteins with free —SH groups, each sample was mixed with 10 mg activated thiol-sepharose 4B beads (Sigma) and incubated for 2 h at room temperature with continuous end-over-end rotation. After incubation, the beads were washed, and bound proteins were eluted by boiling the beads with an aliquot of 50 μL elution sample buffer. The input and eluted fractions from “HAM” and “control” samples were separated by SDS-PAGE and analyzed by Western blotting.
(§1) It was previously established that mBCO2 in eukaryotic HEK293F cells is palmitoylated. […] Knowing that BCO2 cleaves xanthophylls, palmitoylation assays were ran to study the palmitoylation status of mBCO2 in the presence of xanthophylls. First, xanthophylls were attempted to be delivered with the detergent Tween 40 [50]. […] Therefore, a new method to deliver xanthophylls without detergents using unilamellar LUVs as described above was established. The content of xanthophylls in the HEK293F cells after 5 h of treatment was similar to a Tween 40 delivery system in ARPE-19 cells (1-2%) (FIG. 9A-9B). Subsequently, the acyl-RAC method was used as described previously. The membrane fraction of HEK293F cells expressing mBCO2 was subjected to treatment with hydroxylamine (+HAM) and an equal portion of the fraction was treated with 250 mM NaCl (−HAM) which served as control.

Data set [4] addresses T1, mBCO2. As to conditions: earlier work [34]; cited from earlier work.
Data set [5] addresses T1, mBCO2. The conditions noted are these: HEK293F cells, earlier work [34]; cited from earlier work.
Another data set relates to HEK293F cells. Kind of data set: Tween 40 delivery: effect on HEK293F cells. Format: cell-based, human. As to conditions: higher concentration of Tween 40 (0.1%).
Description: as §1

Results on five compounds are retold here after US20240165029A1, “ASSISTED LOADING OF HYDROPHOBIC MOLECULES INTO LIPOSOMES” (UNIVERSITY OF CONNECTICUT, priority 2021, published 2024).

“Also recorded” adds a separate entry of the source.

`CC1=C[C@H](O)CC(C)(C)[C@H]1/C=C/C(C)=C/C=C/C(C)=C/C=C/C=C(C)/C=C/C=C(C)/C=C/C1=C(C)C[C@@H](O)CC1(C)C` [lutein]: the “final concentration of xanthophyll in LUVs measured by UV/Vis” value (“final concentration of xanthophyll” for short) in data set [1] (DMPC/DMPS LUVs) is given as 0.0125 g/L. For the same compound, the “percent of colocalization of mBCO2 with nuclear marker” value at mBCO2 [2] is “higher”. The “percent colocalization of BCO2 in the nucleus” value at mBCO2 [2] (lower concentration of lutein (0.06 μM) versus 0.15 μM) is on record as “decreased in a lutein concentration-dependent manner”. Moreover, the “mBCO2 palmitoylation (protein band in HAM-treated sample)” value is “no protein band was detected in the HAM-treated sample; also recorded: residual mBCO2 palmitoylation is seen in some samples” at mBCO2 [3] (0.06 μM lutein in DMPC/DMPS) and “no protein band was detected in the HAM-treated sample” on mBCO2 [3] (0.15 μM lutein in DMPC/DMPS).

Turning to `CC(/C=C/C=C(C)/C=C/[C@@]12O[C@]1(C)C[C@@H](O)CC2(C)C)=C\C=C\C=C(C)\C=C\C=C(C)\C=C\[C@@]12O[C@]1(C)C[C@@H](O)CC2(C)C` [violaxanthin], the “final concentration of xanthophyll” value in data set [1] (DMPC/DMPS LUVs) amounted to 0.07 g/L. For the same compound, on mBCO2 [2], the “percent of colocalization of mBCO2 with nuclear marker” value is reported as “higher”. On mBCO2 [3] (0.6 μM, DMPC/DMPS-encapsulated), the “mBCO2 palmitoylation (protein band in HAM-treated sample)” value is recorded as “residual mBCO2 palmitoylation is seen in some samples”.

Regarding `CC1=C(/C=C/C(C)=C/C=C/C(C)=C/C=C/C=C(C)/C=C/C=C(C)/C=C/C2=C(C)C[C@@H](O)CC2(C)C)C(C)(C)C[C@H](O)C1` [zeaxanthin], the “final concentration of xanthophyll” value in data set [1] (DMPC/DMPS LUVs) turned out to be 0.14 g/L; in data set [1] (DPPC/DPPS LUVs), 0.038 g/L. Moreover, the “mBCO2 palmitoylation (protein band in HAM-treated sample)” value at mBCO2 [3] (0.45 μM, DPPC/DPPS-encapsulated) was “residual mBCO2 palmitoylation is seen in some samples”.

In the case of `CC1=C(/C=C/C(C)=C/C=C/C(C)=C/C=C/C=C(C)/C=C/C=C(C)/C=C/C2=C(C)CCCC2(C)C)C(C)(C)CCC1` [β-carotene], the “mBCO2 colocalization with the nuclear DAPI stain” value at mBCO2 [4] is reported as “mBCO2 colocalization with the nuclear DAPI stain was observed”. Also, the “mBCO2 palmitoylation in presence of substrate” value on mBCO2 [5] was “loses palmitoylation”.

As for Tween 40 [reference compound], the “effect on HEK293F cells” value with HEK293F cells is “led to HEK293F cell apoptosis”. Besides, the “effect on mBCO2 membrane association in Acyl-RAC assay” value on mBCO2 [3] (lower concentration of Tween 40 (0.01%)) is reported as “eluted mBCO2 from membranes during the Acyl-RAC assay even without hydroxylamine treatment”.
